Here are results for 10 compounds from patent US11407763B2, “Tryptophan hydroxylase inhibitor and pharmaceutical composition including same” (GWANGJU INSTITUTE OF SCIENCE AND TECHNOLOGY, priority 2017, dated 2022).

Counter-ions that a name gives are not always drawn.

Chain of TPH1 (tryptophan hydroxylase 1) (P17752 whole entry): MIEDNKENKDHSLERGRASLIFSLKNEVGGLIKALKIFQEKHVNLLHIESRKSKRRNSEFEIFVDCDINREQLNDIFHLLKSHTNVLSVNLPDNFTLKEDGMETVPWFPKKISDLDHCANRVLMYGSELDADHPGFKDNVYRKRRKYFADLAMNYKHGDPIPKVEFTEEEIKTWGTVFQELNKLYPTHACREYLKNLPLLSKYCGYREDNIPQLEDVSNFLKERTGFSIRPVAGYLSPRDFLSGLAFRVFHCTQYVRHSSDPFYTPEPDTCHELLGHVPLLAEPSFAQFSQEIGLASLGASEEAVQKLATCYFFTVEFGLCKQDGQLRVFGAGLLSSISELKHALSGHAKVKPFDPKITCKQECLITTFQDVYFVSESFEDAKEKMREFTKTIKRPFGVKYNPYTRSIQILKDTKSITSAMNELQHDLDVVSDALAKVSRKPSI

One assay has as its target TPH1 (tryptophan hydroxylase 1) (Homo sapiens (Human), UniProt P17752). Kind of assay: TPH1 inhibitor screening assay kit (BPS Bioscience), fluorescence. The assay is classed as biochemical. Conditions: TPH1 enzyme, 4 hours at 4° C., ex 300 nm / em 360 nm. On the procedure:
In order to confirm the inhibitory effect of the compound represented by formula 1 according to the present invention on the tryptophan hydroxylase activity, it was measured using a TPH1 (tryptophan hydroxylase 1) inhibitor screening assay kit (BPS Bioscience, Catalog #72053). The TPH1 inhibitor screening assay kit was used according to the manufacturer's manual.
Particularly, the synthesized compound was dissolved in DMSO, which was added to a 96-well microplate (10 ? /well), to which TPH1 enzyme was added (40 ? /well). Then, TPH1 reaction solution was added to the microplate (50 ? /well) and the microplate was shaded with aluminum foil. The microplate was transferred to 4° C. environment, shaken carefully and incubated for 4 hours. After adding a quench solution to the microplate (10 ? /well), the TPH1 activity was measured by reading the degree of fluorescence color development with a Flexstation3 microplate reader. At this time, the excitation spectrum was 300 nm and the emission spectrum was 360 nm.
As for `N[C@@H](Cc1ccc(-c2csc3c(O[C@H](c4ccc(Cl)cc4-c4cccc(F)c4)C(F)(F)F)ncnc23)cc1)C(=O)O` [Example 24, (S)-2-amino-3-(4-(4-((R)-1-(5-chloro-3′-fluoro-[1,1′-biphenyl]-2-yl)-2,2,2-trifluoroethoxy)thieno[3,2-d]pyrimidine-7-yl)phenyl)propionic acid hydrochloride], the half-inhibitory concentration (IC50) is 565 nM.

The compound `Cc1ccn(-c2cc(Cl)ccc2[C@@H](Oc2ncnc3c(C4=CCC5(CC4)CNC(C(=O)O)C5)csc23)C(F)(F)F)n1` (stereo partly drawn) [Example 84, 8-(4-((R)-1-(4-chloro-2-(3-methyl-1H-pyrazole-1-yl)phenyl)-2,2,2-trifluoroethoxy)thieno[3,2-d]pyrimidine-7-yl)-2-azaspiro[4.5]dec-7-ene-3-carboxylic acid hydrochloride] showed a half-maximal inhibitory concentration (IC50) of 307 nM. On the same count and under the same terms, with `Cc1ccn(-c2cc(Cl)ccc2[C@@H](Oc2cc(C3=CCC4(CC3)CNC(C(=O)O)C4)nc(N)n2)C(F)(F)F)n1` (stereo partly drawn) [Example 80, 8-(2-amino-6-((R)-1-(4-chloro-2-(3-methyl-1H-pyrazole-1-yl)phenyl)-2,2,2-trifluoroethoxy)pyrimidine-4-yl)-2-azaspiro[4.5]dec-7-ene-3-carboxylic acid] the figure was 194 nM; with `Nc1nc(OC(c2ccc(Cl)cc2-c2ccccc2)C(F)(F)F)cc(C2=CCC(C[C@H](N)C(=O)O)CC2)n1` (stereo partly drawn) [Example 48, (2S)-2-amino-3-(4-(2-amino-6-(1-(5-chloro-[1,1′-biphenyl]-2-yl)-2,2,2-trifluoroethoxy)pyrimidine-4-yl)cyclohex-3-ene-1-yl)propionic acid hydrochloride], 433 nM.

For `Nc1nc(O[C@H](c2ccc(Cl)cc2C2=CCOCC2)C(F)(F)F)cc(C2=CCC3(CC2)CNC(C(=O)O)C3)n1` (stereo partly drawn) [Example 83, 8-(2-amino-6-((R)-1-(4-chloro-2-(3,6-dihydro-2H-pyran-4-yl)phenyl)-2,2,2-trifluoroethoxy)pyrimidine-4-yl)-2-azaspiro[4.5]dec-7-ene-3-carboxylic acid hydrochloride], half-maximal inhibition (IC50) was put at 1150 nM.

Regarding `N[C@@H](Cc1ccc(-c2csc3c(OC(c4ccc(Cl)cc4-c4ccccc4)C(F)(F)F)ncnc23)cc1)C(=O)O` (stereo partly drawn) [Example 26, (2S)-2-amino-3-(4-(4-(1-(5-chloro-[1,1′-biphenyl]-2-yl)-2,2,2-trifluoroethoxy)thieno[3,2-d]pyrimidine-7-yl)phenyl)propionic acid hydrochloride], the IC50 came to 679 nM.

Staying with this assay, now noted: TPH1 enzyme, 4 hours at 4° C., ex 300 nm / em 360 nm; hydrochloride.
`Cc1ccn(-c2cc(Cl)ccc2[C@@H](Oc2cc(C3=CCC(C[C@H](N)C(=O)O)CC3)nc(N)n2)C(F)(F)F)n1` (stereo partly drawn) [Example 31, (2S)-2-amino-3-(4-(2-amino-6-((R)-1-(4-chloro-2-(3-methyl-1H-pyrazole-1-yl)phenyl)-2,2,2-trifluoroethoxy)pyrimidine-4-yl)cyclohex-3-ene-1-yl)propionic acid hydrochloride]: half-maximal inhibition (IC50) was put at 114 nM. This counts as sub-micromolar. In turn, `COc1cccc(-c2ccc([C@@H](Oc3cc(C4=CCC5(CC4)CNC(C(=O)O)C5)nc(N)n3)C(F)(F)F)cc2)c1` (stereo partly drawn) [Example 87, 8-(2-amino-6-((R)-2,2,2-trifluoro-1-(3′-methoxy-[1,1′-biphenyl]-4-yl)ethoxy)pyrimidine-4-yl)-2-azaspiro[4.5]dec-7-ene-3-carboxylic acid hydrochloride] came in with an IC50 of 741 nM.

In turn, `Nc1nc(O[C@H](c2ccc(Cl)cc2C2=CCCOC2)C(F)(F)F)cc(C2=CCC(C[C@H](N)C(=O)O)CC2)n1` (stereo partly drawn) [Example 66, (2S)-2-amino-3-(4-(2-amino-6-((R)-1-(4-chloro-2-(5,6-dihydro-2H-pyran-3-yl)phenyl)-2,2,2-trifluoroethoxy)pyrimidine-4-yl)cyclohex-3-ene-1-yl)propionic acid hydrochloride] had an IC50 of 125 nM. For `N[C@@H](Cc1ccc(-c2csc3c(O[C@H](c4ccc(Cl)cc4C4=CCCOC4)C(F)(F)F)ncnc23)cc1)C(=O)O` [Example 69, (S)-2-amino-3-(4-(4-((R)-1-(4-chloro-2-(5,6-dihydro-2H-pyran-3-yl)phenyl)-2,2,2-trifluoroethoxy)thieno[3,2-d]pyrimidine-7-yl)phenyl)propionic acid hydrochloride], it took 263 nM to reach half-maximal inhibition (IC50). This IC50 lies about 2.1-fold higher than the previous one.
